This note sets out measurements from patent EP4342467A1, “KU INHIBITORS FOR USE IN TUMOR THERAPY” (Masarykova Univerzita, priority 2022, dated 2024).

Each structure is given as a SMILES string.

What all share (type): cell-based, human
Test [1] concerns HCT116 cells. As to the kind of experiment: DNA damage induction, immunodetection of γH2AX in nuclei. To be noted: HCT116 incubated for 1 day. The protocol: iKU-1 induces DNA damage in treated cells (Figure 3). HCT116 cells were incubated for 1 day in McCoy's 5a medium with 10% Fetal Bovine Serum, 2 mM L-Glutamine and Penicilin/Streptomycin 200 U/l each and supplemented with iKU-1. DNA damage induction was assessed by immunodetection of yH2AX in nuclei with specific antibody (Anti-phospho-Histone H2A.X (Ser139) Antibody, clone JBW301, Merck; dilution 1:500) and Alexa Fluor-conjugated secondary antibody (Goat anti-Mouse IgG (H+L) Highly Cross-Adsorbed Secondary Antibody, Alexa Fluor™ Plus 647, Invitrogen/Thermofisher; dilution 1:500).

The subject of test [2] is HCT116 cells. The experiment in a line: C-circle assay (extrachromosomal circular telomeric DNA). The settings on record: C-circle assay in HCT116 cells treated for 3 to 7 days. How it is done: HCT116 cell were incubated for 3, 5 or 7 days in McCoy's 5a medium with 10% Fetal Bovine Serum, 2 mM L-Glutamine and Penicilin/Streptomycin 200 U/l each and supplemented with Compound 1-9. C-circle assay that utilizes rolling circle amplification of circular DNA by φ29 polymerase was performed as described in Henson, J.D., Lau, L.M., Koch, S., Martin La Rotta, N., Dagg, R.A., and Reddel, R.R. (2017). The C-Circle Assay for alternative-lengthening-of-telomeres activity. Methods 114, 74-84. Amplified circular telomeric DNA was detected by dot blot hybridization with P^32-labeled telomeric DNA oligonucleotide (5'-[…]-3' (SEQ ID NO: 6)) (Figure 4).

For test [3], the system named is HCT116 cells. The experiment in a line: Q-FISH scoring of chromosome arms with no telomeric signal. The settings on record: HCT116, one or two days, 2 or 5 µM. The protocol:
Presence of extrachromosomal circular telomeric DNA indicates rapid telomere shortening via excision of telomeric circles. To validate this prediction, we scored chromosome arms with no telomeric signal on metaphase chromosomes from iKU-1 treated cells by quantitative fluorescence in situ hybridization (Q-FISH). HCT116 cells were incubated for one or two days in McCoy's 5a medium with 10% Fetal Bovine Serum, 2 mM L-Glutamine and Penicilin/Streptomycin 200 U/l each and supplemented with iKU-1 (2 or 5 µM). Treated cells were incubated with colcemid (0.05 µg/ml) for 3 hours to increase a number of cells in metaphase. Cells were harvested and fixed in methanol and glacial acetic acid (3:1 v/v). Chromosome spreads on slides were hybridized with telomeric peptide nucleid acid probe TelC-Cy3 (Panagene, F1002) in 70% formamide, 0.5% blocking reagent (Roche) and 20 mM TRIS-Cl pH 7.4 according manufacturer's instruction. After washing, slides were counterstained with DAPI and mounted in […]® Antifade Mounting Medium with DAPI (Vector Laboratories; H-1200-10). Fluorescence microscope with oil immersed 100× objective was used to detect telomeric signal at chromosome ends.

Test [4] has as its system HCT116 cells. The experiment in a line: Telomere Shortest Length Assay. To be noted: HCT116 treated for two days, compared with untreated control. The protocol: iKU-1 induces rapid shortening of telomeres (Figure 6). HCT116 cells were treated for two days with iKU-1 and telomere size was measured by Telomere Shortest Length Assay as described in Lai, T.P., Zhang, N., Noh, J., Mender, I., Tedone, E., Huang, E., Wright, W.E., Danuser, G., and Shay, J.W. (2017). A method for measuring the distribution of the shortest telomeres in cells and tissues. Nat Commun 8, 1356, whereby individual telomeres are PCR-amplified, separated by agarose gel electrophoresis and detected by Southern hybridization with P^32-labeled telomeric DNA oligonucleotide (5'-[…]-3' (SEQ ID NO: 6)).

Test [5] has as its system HCT116 cells. The experiment in a line: flow cytometry analysis of DNA content (cell cycle). The settings on record: HCT116 incubated for two days. How it is done: HCT116 cells were incubated for two days in McCoy's 5a medium supplemented with 10% Fetal Bovine Serum, 2 mM L-Glutamine and Penicilin/Streptomycin 200 U/l each in the presence of iKU-1, harvested and fixed in cold 70% ethanol. Cells were recovered in PBS solution and resuspended in 200 µl of Vindel solution containing propidium iodide and RNAse A, and nuclear DNA content was measured by flow cytometry (Beckton Dickinson FACS Verse). Accumulation of cells in S-phase is apparent already after two days of the iKU-1 treatment.

For the next test, the system named is HCT116. As to the kind of experiment: combination with BIBR1532, relative growth by ATPlite. The protocol: 10,000 HCT116 cells were seeded in 100 µl of McCoy's 5a medium supplemented with 10% Fetal Bovine Serum, 2 mM L-Glutamine and Penicilin/Streptomycin 200 U/l for 1 day in 96well plate and treated with 10 µM BIBR1532, 0.25 µM of iKU-1 or their combination for 4 days. Number of viable cells was measured by ATPlite kit (Perkin Elmer) and normalized to the treatment with 0.5% DMSO. The results presented in Table 2 show a synergistic effect of iKU-1 and BIBR1532 on the growth of HCT116 tumor cell line. Values in the table indicate relative growth assessed by ATPlite kit compared to the control sample treated with 0.5% DMSO after 4 days of treatment.

The test system of another test is U2OS. The description is as above. To be noted: 10 µM BIBR1532, 0.25 µM iKU-1 or their combination, 4 days.
Another test concerns A2780. As to the kind of experiment: growth of A2780 cells by ATPlite, alone and in combination with Bleomycin. How it is done: 2,000 A2780 cells were seeded in 100 µl of RPMI 1640 medium with 300 mg/l L-Glutamine and 10% Fetal Bovine Serum for 1 day in 96well plate and treated by 0.025 µg/ml of Bleomycin, 0.5 µM of iKu-1 or their combination for 7 days. Number of viable cells was measured by ATPlite kit (Perkin Elmer) and normalized to the treatment with 0.5% DMSO.
Values in the table indicate relative growth assessed by ATPlite kit compared to the control sample treated with 0.5% DMSO after 7 days of treatment.
2,000 SKOV3 and A2780 cells were seeded in 100 µl of McCoy's 5a or RPMI 1640 media, respectively, for one day and then incubated with iKU-1 for 7 days. Number of viable cells was measured by ATPlite kit (Perkin Elmer) and normalized to the treatment with 0.5% DMSO.

As to `O=C(Nc1nc(-c2ccccn2)cs1)c1cncc(Br)c1` [Compound 1], the “DNA damage induction (γH2AX signal)” value in the test with HCT116 cells [1] is “formation of either nuclear foci or whole nuclear staining in a subset of cells”. Moreover, in the test with HCT116 cells [2], the “Concentration inducing c-circle formation” value is 1 µM. For the same molecule, in the test on HCT116 cells [3], the “incidence of telomere-free chromosome ends” value is “increase incidence of telomere-free chromosome ends”. Further, the size of telomeres entry with HCT116 cells [4] is on record as “relative decrease in the size of telomeres”. Besides, the cell cycle effect result in the test on HCT116 cells [5] is given as “cell cycle arrest in S-phase”. For the same molecule, in the test with HCT116 (HCT116, 10 µM BIBR1532 with 0.25 µM iKU-1, 4 days), the “interaction with BIBR1532 on growth” value is “synergism”. Further, the “relative growth assessed by ATPlite kit compared to the control sample treated with 0.5% DMSO” value was 1.17 with HCT116 (HCT116, 10 µM BIBR1532, 0.25 µM iKU-1 or their combination, 4 days); 0.81 in the test on U2OS; 1.11 in the test with A2780 (A2780, 0.025 µg/ml Bleomycin, 0.5 µM iKU-1 or their combination, 7 days). Further, in the test on A2780 (A2780, 0.025 µg/ml Bleomycin with 0.5 µM iKu-1, 7 days), the “interaction with Bleomycin on growth” value is recorded as “synergism”. Moreover, the growth inhibition result with A2780 (A2780, 0.5 µM, 7 days) is “do not show growth inhibition”.
